The results in this text go back to patent publication US20260062387A1, “SALT-INDUCIBLE KINASE INHIBITOR COMPOUND AND PHARMACEUTICAL COMPOSITION INCLUDING THE SAME” (MITSUBISHI TANABE PHARMA CORPORATION, priority 2023, published 2026).

Holding throughout (assay type): biochemical
One assay deals with GST-tagged SIK1 (Homo sapiens (Human), UniProt P57059). The assay can be described thus: SIK1 inhibition test (ADP-Glo Max Assay). The note with it: enzyme 20 nM, AMARA Peptide 200 μM, ATP 1 mM, 2 hours room temperature. On the procedure: (§1) The compounds described in Examples above were used in the SIK1, SIK2, and SIK3 inhibition test.
Sequence of GST-tagged SIK1 (P57059 whole entry): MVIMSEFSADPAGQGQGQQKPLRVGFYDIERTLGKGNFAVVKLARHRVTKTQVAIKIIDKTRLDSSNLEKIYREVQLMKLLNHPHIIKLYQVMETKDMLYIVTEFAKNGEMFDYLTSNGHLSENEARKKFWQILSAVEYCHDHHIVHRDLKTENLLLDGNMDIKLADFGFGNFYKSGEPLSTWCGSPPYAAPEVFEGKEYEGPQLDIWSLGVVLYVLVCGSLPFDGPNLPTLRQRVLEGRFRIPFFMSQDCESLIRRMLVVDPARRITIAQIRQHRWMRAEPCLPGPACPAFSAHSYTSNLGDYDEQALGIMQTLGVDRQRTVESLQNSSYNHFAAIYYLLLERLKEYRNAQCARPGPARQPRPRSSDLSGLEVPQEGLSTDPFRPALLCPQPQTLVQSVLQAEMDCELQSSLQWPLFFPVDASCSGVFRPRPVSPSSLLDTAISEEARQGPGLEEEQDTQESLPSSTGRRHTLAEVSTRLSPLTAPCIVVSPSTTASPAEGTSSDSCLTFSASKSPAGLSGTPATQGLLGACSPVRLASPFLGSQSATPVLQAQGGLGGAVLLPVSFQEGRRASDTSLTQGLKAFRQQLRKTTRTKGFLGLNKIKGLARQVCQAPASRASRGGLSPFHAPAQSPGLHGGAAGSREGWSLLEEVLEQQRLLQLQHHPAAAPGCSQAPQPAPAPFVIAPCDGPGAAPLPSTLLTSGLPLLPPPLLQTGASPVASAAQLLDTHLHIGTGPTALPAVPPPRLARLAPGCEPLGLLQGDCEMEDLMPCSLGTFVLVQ
(§2) The inhibitory activity of the compound for SIK1, SIK2, and SIK3 enzymes was assayed by measuring the amount of ADP, an enzyme reaction product, with ADP-Glo™ Max Assay (Promega). Enzymes, specifically, GST-tagged SIK1 (Carna Biosciences, Inc.), GST-tagged SIK2 (Carna Biosciences, Inc.), and GST-tagged SIK3 (SignalChem) were prepared in a reaction buffer (15 mM tris-hydrochloric acid buffer (pH 7.5), 0.001% Triton X-100, 0.01% BSA) so that the final concentration would be 20 nM, 3 nM, and 100 nM. Enzyme solutions were thus formed. In a reaction buffer, AMARA Peptide (SignalChem) as a substrate with a final concentration of 200 μM (SIK1, SIK2) or 100 μM (SIK3), ATP (Promega) with a final concentration of 1 mM, and magnesium chloride with a final concentration of 5 mM were prepared. Substrate solutions were thus formed. The enzyme solution, the substrate solution, and a DMSO solution of a concentration of the test compound were mixed together and reacted at room temperature for 2 hours. After the reaction, ADP-Glo™ Reagent (Promega) was added, and the reaction was performed at room temperature for 30 minutes. Subsequently, ADP-Glo™ Max Detection Reagent (Promega) was added, and the reaction was performed at room temperature for 30 minutes. The emission by the luciferase reaction was measured with PHERAstar FSX (BMG LABTECH).
(§3) The inhibitory ratio (%) was calculated by: % Inhibition={1−(intensity of sample−intensity of blank (no enzyme solution added))/(intensity of control (DMSO alone)−intensity of blank)}×100. The inhibitory concentration IC50 was calculated based on 16 data values obtained in the concentration response test.
On the technique in general: In ADP-Glo the light output rises with the ADP produced.

The next assay deals with GST-tagged SIK2 (Homo sapiens (Human), UniProt Q9H0K1). The assay can be described thus: SIK2 inhibition test (ADP-Glo Max Assay). The note with it: enzyme 3 nM, AMARA Peptide 200 μM, ATP 1 mM, 2 hours room temperature. Here is the method:
as §1, §2, §3

Another assay deals with GST-tagged SIK3 (Homo sapiens (Human), UniProt Q9Y2K2). The assay can be described thus: SIK3 inhibition test (ADP-Glo Max Assay). The conditions noted are these: enzyme 100 nM, AMARA Peptide 100 μM, ATP 1 mM, 2 hours room temperature. On the procedure:
as §1, §2, §3

Sequence of GST-tagged SIK2 (Q9H0K1 whole entry): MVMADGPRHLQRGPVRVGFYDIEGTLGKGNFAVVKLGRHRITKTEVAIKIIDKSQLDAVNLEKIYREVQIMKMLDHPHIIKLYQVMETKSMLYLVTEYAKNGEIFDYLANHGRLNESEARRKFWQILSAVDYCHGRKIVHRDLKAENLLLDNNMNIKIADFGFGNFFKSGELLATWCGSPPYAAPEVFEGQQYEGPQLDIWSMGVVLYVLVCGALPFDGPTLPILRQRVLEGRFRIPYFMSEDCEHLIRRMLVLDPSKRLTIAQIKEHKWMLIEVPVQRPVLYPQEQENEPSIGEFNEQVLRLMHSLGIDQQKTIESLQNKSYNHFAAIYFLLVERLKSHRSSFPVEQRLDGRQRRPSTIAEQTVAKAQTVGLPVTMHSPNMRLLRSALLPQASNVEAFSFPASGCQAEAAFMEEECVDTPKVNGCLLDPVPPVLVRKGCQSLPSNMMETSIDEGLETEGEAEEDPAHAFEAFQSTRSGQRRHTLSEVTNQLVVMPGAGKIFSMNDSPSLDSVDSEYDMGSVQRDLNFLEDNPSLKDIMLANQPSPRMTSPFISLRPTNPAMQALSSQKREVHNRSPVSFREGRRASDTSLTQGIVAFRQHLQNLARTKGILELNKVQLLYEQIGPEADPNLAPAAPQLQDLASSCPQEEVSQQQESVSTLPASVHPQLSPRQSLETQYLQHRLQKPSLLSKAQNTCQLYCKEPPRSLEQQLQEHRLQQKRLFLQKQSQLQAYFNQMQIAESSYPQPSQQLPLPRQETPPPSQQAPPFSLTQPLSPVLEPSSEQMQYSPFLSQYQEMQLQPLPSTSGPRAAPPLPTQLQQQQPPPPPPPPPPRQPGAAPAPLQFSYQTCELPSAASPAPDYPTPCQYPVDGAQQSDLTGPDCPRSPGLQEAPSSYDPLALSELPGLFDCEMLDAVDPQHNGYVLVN
Sequence of GST-tagged SIK3 (Q9Y2K2 whole entry): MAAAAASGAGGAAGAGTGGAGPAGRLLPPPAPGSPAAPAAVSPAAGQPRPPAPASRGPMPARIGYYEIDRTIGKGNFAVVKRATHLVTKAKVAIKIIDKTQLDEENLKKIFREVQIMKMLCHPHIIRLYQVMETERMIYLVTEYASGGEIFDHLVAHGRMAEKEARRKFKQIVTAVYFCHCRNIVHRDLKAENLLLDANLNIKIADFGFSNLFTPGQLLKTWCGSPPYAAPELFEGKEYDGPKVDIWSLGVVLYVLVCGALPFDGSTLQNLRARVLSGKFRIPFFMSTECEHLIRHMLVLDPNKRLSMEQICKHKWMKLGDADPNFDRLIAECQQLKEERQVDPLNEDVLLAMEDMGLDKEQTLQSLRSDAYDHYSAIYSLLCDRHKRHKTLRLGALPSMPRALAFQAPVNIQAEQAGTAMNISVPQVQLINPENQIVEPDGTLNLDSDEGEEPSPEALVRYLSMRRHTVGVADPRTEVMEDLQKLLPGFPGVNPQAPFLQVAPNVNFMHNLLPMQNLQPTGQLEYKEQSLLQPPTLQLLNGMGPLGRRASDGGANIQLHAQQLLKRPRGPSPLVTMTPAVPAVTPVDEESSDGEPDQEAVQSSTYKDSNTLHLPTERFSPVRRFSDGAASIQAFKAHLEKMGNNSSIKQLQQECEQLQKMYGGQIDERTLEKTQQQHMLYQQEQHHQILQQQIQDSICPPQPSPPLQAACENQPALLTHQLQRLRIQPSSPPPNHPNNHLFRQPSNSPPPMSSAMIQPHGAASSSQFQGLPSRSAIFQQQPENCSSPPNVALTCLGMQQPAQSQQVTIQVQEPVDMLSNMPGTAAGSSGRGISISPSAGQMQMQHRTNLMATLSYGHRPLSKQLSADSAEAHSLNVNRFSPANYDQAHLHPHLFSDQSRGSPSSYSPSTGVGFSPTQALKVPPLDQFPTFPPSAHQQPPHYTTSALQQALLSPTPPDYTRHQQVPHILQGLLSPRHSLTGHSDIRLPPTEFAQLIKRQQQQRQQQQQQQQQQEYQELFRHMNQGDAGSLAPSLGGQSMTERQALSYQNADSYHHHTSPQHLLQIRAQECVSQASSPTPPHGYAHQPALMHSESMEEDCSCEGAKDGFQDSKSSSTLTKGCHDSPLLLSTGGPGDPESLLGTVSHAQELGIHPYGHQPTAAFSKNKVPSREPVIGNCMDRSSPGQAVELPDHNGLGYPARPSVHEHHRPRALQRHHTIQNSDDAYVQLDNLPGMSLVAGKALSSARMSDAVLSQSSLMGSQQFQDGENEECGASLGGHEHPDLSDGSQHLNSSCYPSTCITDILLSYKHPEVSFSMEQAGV

On to `COc1cc(-c2c3c(C#N)cc(-c4cn[nH]c4)cc3nn2C)cc(OC(F)F)c1C(=O)N[C@@H]1CC1(F)F` [Example 148, 4-[4-cyano-2-methyl-6-(1H-pyrazol-4-yl)indazol-3-yl]-N-[(1R)-2,2-difluorocyclopropyl]-2-(difluoromethoxy)-6-methoxybenzamide], for which the half-maximal inhibitory concentration (IC50) worked out at 6 nM against GST-tagged SIK1, 1.3 nM on GST-tagged SIK2 and 1.1 nM against GST-tagged SIK3.
In the case of `COc1cc(-c2c3c(C#N)cc(-c4cnn(CC(C)(C)O)c4)cc3nn2C)cc(OC(F)F)c1C(=O)N1CC(O)(C(F)(F)F)C1` [Example 16], the results for the IC50 against GST-tagged SIK1, against GST-tagged SIK2 and against GST-tagged SIK3 were 8.7 nM, 13.8 nM and 3.2 nM, respectively.
Take `C[C@H]1CNC(=O)c2c(OC(F)F)cc(-c3c4c(C#N)cc(-c5cnn(C)c5)cc4nn3C)cc21` (single isomer, unassigned) [Example 182]: the IC50 at GST-tagged SIK1 was 6.4 nM; on GST-tagged SIK2, 2.5 nM; at GST-tagged SIK3, 2 nM.
Turning to `COc1cc(-c2c3c(C#N)cc(-c4cnn(CC5(O)CC5)c4)cc3nn2C)cc(OC(F)F)c1C(=O)NCC1(F)CC1` [Example 83, 4-[4-cyano-6-[1-[(1-hydroxycyclopropyl)methyl]pyrazol-4-yl]-2-methylindazol-3-yl]-2-(difluoromethoxy)-N-[(1-fluorocyclopropyl)methyl]-6-methoxybenzamide], the IC50 is 10.5 nM against GST-tagged SIK1, 8.1 nM against GST-tagged SIK2 and 10.2 nM against GST-tagged SIK3.
`COc1cc(-c2c3c(C#N)cc(-c4cn[nH]c4)cc3nn2C)cc2c1C(=O)NCC2(C)C` [Example 147, 3-(8-methoxy-4,4-dimethyl-1-oxo-2,3-dihydroisoquinolin-6-yl)-2-methyl-6-(1H-pyrazol-4-yl)indazol-4-carbonitrile]: the IC50 was 6.3 nM on GST-tagged SIK1, 3.2 nM at GST-tagged SIK2 and 13.4 nM on GST-tagged SIK3.
Turning to `CCn1cc(-c2cc(OC)c3c(-c4cc(OC(F)F)c5c(c4)[C@@H](C)CNC5=O)n(C)nc3c2)cn1` (single isomer, unassigned) [Example 179], the IC50 against GST-tagged SIK1 came to 5.7 nM; at GST-tagged SIK2, 2 nM; against GST-tagged SIK3, 6.1 nM.
Consider `COc1cc(-c2c3c(C#N)cc(-c4cnn(C[C@@H](O)c5ccccc5)c4)cc3nn2C)cc(OC(F)F)c1C(=O)NCC1(F)CC1` [Example 97, 4-[4-cyano-6-[1-[(2S)-2-hydroxy-2-phenylethyl]pyrazol-4-yl]-2-methylindazol-3-yl]-2-(difluoromethoxy)-N-[(1-fluorocyclopropyl)methyl]-6-methoxybenzamide], for which the IC50 was determined as 15.3 nM against GST-tagged SIK1, 7.4 nM against GST-tagged SIK2 and 6.1 nM on GST-tagged SIK3.
As for `COc1cc(-c2c3c(OCc4cncc(C#N)c4)cc(-c4cnn(C)c4)cc3nn2C)cc(OC(F)F)c1C(=O)N1CC(O)(C(F)(F)F)C1` [Example 104, 5-[[3-[3-(difluoromethoxy)-4-[3-hydroxy-3-(trifluoromethyl)azetidin-1-carbonyl]-5-methoxyphenyl]-2-methyl-6-(1-methylpyrazol-4-yl)indazol-4-yl]oxymethyl]pyridine-3-carbonitrile], the IC50 against GST-tagged SIK1 is 6.4 nM; against GST-tagged SIK2 it was 1.8 nM; against GST-tagged SIK3 it was 4.8 nM.
`COc1cc(-c2c3c(C(F)F)cc(-c4cnn(CC(C)(C)O)c4)cc3nn2C)cc(OC(F)F)c1C(=O)N[C@@H]1CC1(F)F` [Example 109]: the 50% inhibitory concentration (IC50) on GST-tagged SIK1 stood at 18 nM; against GST-tagged SIK2 it was 18.1 nM; against GST-tagged SIK3 it was 2.3 nM.
As to `COc1cc(-c2c3c(C(F)F)cc(-c4cnn(C[C@H](C)O)c4)cc3nn2C)cc(OC(F)F)c1C(=O)N1CC(O)(C(F)F)C1` [Example 67, [2-(difluoromethoxy)-4-[4-(difluoromethyl)-6-[1-[(2S)-2-hydroxypropyl]pyrazol-4-yl]-2-methylindazol-3-yl]-6-methoxyphenyl]-[3-(difluoromethyl)-3-hydroxyazetidin-1-yl]methanone], the results for the IC50 on GST-tagged SIK1, at GST-tagged SIK2 and on GST-tagged SIK3 were 8.5 nM, 12.7 nM and 4.8 nM, respectively.
With `CCOCCn1cc(-c2cc(C#N)c3c(-c4cc(OC)c5c(c4)C(C)(C)CNC5=O)n(C)nc3c2)cn1` [Example 152, 6-[1-(2-ethoxyethyl)pyrazol-4-yl]-3-(8-methoxy-4,4-dimethyl-1-oxo-2,3-dihydroisoquinolin-6-yl)-2-methylindazole-4-carbonitrile], the results for the IC50 against GST-tagged SIK1, at GST-tagged SIK2 and against GST-tagged SIK3 were 7.2 nM, 3.4 nM and 14.4 nM, respectively.
Taken in the same sequence, the figures for `CCn1cc(-c2cc(C#N)c3c(-c4cc(OC(F)F)c5c(c4)[C@@H](C)CNC5=O)n(C)nc3c2)cn1` (single isomer, unassigned) [Example 174] were 8.6 nM, 2.3 nM and 2.6 nM.
Consider `COc1cc(-c2c3c(C#N)cc(-c4cnn(CC5(O)CCC5)c4)cc3nn2C)cc(OC(F)F)c1C(=O)N[C@@H]1CC1(F)F` [Example 110, 4-[4-cyano-6-[1-[(1-hydroxycyclobutyl)methyl]pyrazol-4-yl]-2-methylindazol-3-yl]-N-[(1R)-2,2-difluorocyclopropyl]-2-(difluoromethoxy)-6-methoxybenzamide], for which the IC50 at GST-tagged SIK1 worked out at 6.5 nM; against GST-tagged SIK2, 3.2 nM; against GST-tagged SIK3, 1.7 nM.
With `COc1cc(-c2c3c(C(F)F)cc(-c4cnn(CCS(C)(=O)=O)c4)cc3nn2C)cc(OC(F)F)c1C(=O)N1CC(O)(C(F)F)C1` [Example 66, [2-(difluoromethoxy)-4-[4-(difluoromethyl)-2-methyl-6-[1-(2-methylsulfonylethyl)pyrazol-4-yl)indazol-3-yl]-6-methoxyphenyl]-[3-(difluoromethyl)-3-hydroxyazetidin-1-yl]methanone], the IC50 against GST-tagged SIK1 was 11.4 nM; against GST-tagged SIK2 it was 14.1 nM; on GST-tagged SIK3, 5.7 nM.
Take `COc1cc(-c2cnn(C)c2)cc2nn(C)c(-c3cc(OC(F)F)c4c(c3)[C@@H](C)CNC4=O)c12` (single isomer, unassigned) [Example 165]: the IC50 came to 5.2 nM on GST-tagged SIK1, 1.5 nM against GST-tagged SIK2 and 6.8 nM against GST-tagged SIK3.
On to `COc1cc(-c2c3c(C#N)cc(-c4cnn(CCC(C)(C)O)c4)cc3nn2C)cc(OC(F)F)c1C(N)=O` [Example 142], for which the results for the IC50 against GST-tagged SIK1, on GST-tagged SIK2 and at GST-tagged SIK3 were 16.2 nM, 1.9 nM and 2.7 nM, respectively.
On to `COc1cc(-c2c3c(C#N)cc(-c4cnn(C[C@H](C)O)c4)cc3nn2C)cc(OC(F)F)c1C(=O)NCC1(F)CC1` [Example 58, 4-[4-cyano-6-[1-[(2S)-2-hydroxypropyl]pyrazol-4-yl]-2-methylindazol-3-yl]-2-(difluoromethoxy)-N-[(1-fluorocyclopropyl)methyl]-6-methoxybenzamide], for which the results for the IC50 against GST-tagged SIK1, at GST-tagged SIK2 and at GST-tagged SIK3 were 13.7 nM, 6.7 nM and 6.3 nM, respectively.
For `COc1cc(-c2c3c(C#N)cc(-c4cnn(CC(F)(F)F)c4)cc3nn2C)cc2c1C(=O)NC[C@@H]2C` (single isomer, unassigned) [Example 126], the IC50 is 7.3 nM against GST-tagged SIK1, 1.5 nM against GST-tagged SIK2 and 5.1 nM at GST-tagged SIK3.
Regarding `COc1cc(-c2c3c(C(F)F)cc(-c4cnn(CC(=O)N(C)C)c4)cc3nn2C)cc(OC(F)F)c1C(=O)N1CC(O)(C(F)F)C1` [Example 61, 2-[4-[3-[3-(difluoromethoxy)-4-[3-(difluoromethyl)-3-hydroxyazetidin-1-carbonyl]-5-methoxyphenyl]-4-(difluoromethyl)-2-methylindazol-6-yl]pyrazol-1-yl]-N,N-dimethylacetamide], the IC50 against GST-tagged SIK1 is 4.7 nM; against GST-tagged SIK2, 7.4 nM; on GST-tagged SIK3, 7.4 nM.
As to `COc1cc(-c2c3c(OCCCO)cc(-c4cnn(C)c4)cc3nn2C)cc(OC(F)F)c1C(=O)N[C@@H]1C[C@@H]1F` [Example 4, 2-(difluoromethoxy)-N-[(1R,2S)-2-fluorocyclopropyl]-4-[4-(3-hydroxypropoxy)-2-methyl-6-(1-methylpyrazol-4-yl)indazol-3-yl]-6-methoxybenzamide], the values for the IC50 against GST-tagged SIK1, against GST-tagged SIK2 and at GST-tagged SIK3 were 5 nM, 8.9 nM and 11.5 nM, respectively.
On to `COc1cc(-c2c3c(OCC4COC4)cc(-c4cnn(C)c4)cc3nn2C)cc(OC(F)F)c1C(=O)N1CC(O)(C(F)(F)F)C1` [Example 26, [2-(difluoromethoxy)-6-methoxy-4-[2-methyl-6-(1-methylpyrazol-4-yl)-4-(oxetan-3-ylmethoxy)indazol-3-yl]phenyl]-[3-hydroxy-3-(trifluoromethyl)azetidin-1-yl]methanone], for which the IC50 worked out at 7.1 nM against GST-tagged SIK1, 4.3 nM against GST-tagged SIK2 and 11.2 nM on GST-tagged SIK3.

Usually IC50 stands for the concentration that gives 50% inhibition. Low values mean greater potency in that assay, high ones weaker potency in that assay.
